# Measured values reported in BindingDB's records for patent US12371428 (Exelixis, 2025).
# Columns and labels:
# [1] = biological target: Hepatocyte growth factor receptor (Homo sapiens, UniProt P08581); experiment: Human Met Kinase Assay
# Experimental: Example D-1: Human Met (residues R974-S1390 with A1209G and V1290L, 3.4 nM) was incubated with 8 mM MOPS pH 7.0, 0.2 mM EDTA, 250 µM […] (SEQ ID NO:3), 1 mM sodium orthovanadate, 5 mM […], 10 mM magnesium acetate, and 10 μM [γ-33P-ATP]. The reaction was initiated by the addition of the Mg/ATP mix. After incubation for 40 minutes at room temperature, the reaction was stopped by the addition of phosphoric acid to a concentration of 0.5%. A reaction aliquot of 10 μL was then spotted onto a P30 filtermat and washed four times for 4 minutes in 0.425% phosphoric acid and once in methanol prior to drying and scintillation counting. Incorporated 33P was measured using the Wallac Microbeta scintillation counter (Perkin Elmer).Example D-2: Human MET (residues 956-1390; CarnaBio, 0.1 ng/well) was also incubated with enzymatic buffer (Cisbio) supplemented with 5 mM MgCl2, 1 mM DTT and 1 mM MnCl2. The mixture was added to the pre-plated compounds. […] The reaction was incubated at room temperature for 40 min and stopped upon the addition of SA-XL665 and TK-antibody both diluted in EDTA-containing kinase detection buffer (Cisbio). The kinase activity was calculated as stated above and the IC50 values were reported.
# [2] = biological target: Vascular endothelial growth factor receptor 2 (Homo sapiens, UniProt P35968); experiment: Human KDR Kinase Assay
# Chain of Vascular endothelial growth factor receptor 2 (P35968 whole entry, the tested form may be a part): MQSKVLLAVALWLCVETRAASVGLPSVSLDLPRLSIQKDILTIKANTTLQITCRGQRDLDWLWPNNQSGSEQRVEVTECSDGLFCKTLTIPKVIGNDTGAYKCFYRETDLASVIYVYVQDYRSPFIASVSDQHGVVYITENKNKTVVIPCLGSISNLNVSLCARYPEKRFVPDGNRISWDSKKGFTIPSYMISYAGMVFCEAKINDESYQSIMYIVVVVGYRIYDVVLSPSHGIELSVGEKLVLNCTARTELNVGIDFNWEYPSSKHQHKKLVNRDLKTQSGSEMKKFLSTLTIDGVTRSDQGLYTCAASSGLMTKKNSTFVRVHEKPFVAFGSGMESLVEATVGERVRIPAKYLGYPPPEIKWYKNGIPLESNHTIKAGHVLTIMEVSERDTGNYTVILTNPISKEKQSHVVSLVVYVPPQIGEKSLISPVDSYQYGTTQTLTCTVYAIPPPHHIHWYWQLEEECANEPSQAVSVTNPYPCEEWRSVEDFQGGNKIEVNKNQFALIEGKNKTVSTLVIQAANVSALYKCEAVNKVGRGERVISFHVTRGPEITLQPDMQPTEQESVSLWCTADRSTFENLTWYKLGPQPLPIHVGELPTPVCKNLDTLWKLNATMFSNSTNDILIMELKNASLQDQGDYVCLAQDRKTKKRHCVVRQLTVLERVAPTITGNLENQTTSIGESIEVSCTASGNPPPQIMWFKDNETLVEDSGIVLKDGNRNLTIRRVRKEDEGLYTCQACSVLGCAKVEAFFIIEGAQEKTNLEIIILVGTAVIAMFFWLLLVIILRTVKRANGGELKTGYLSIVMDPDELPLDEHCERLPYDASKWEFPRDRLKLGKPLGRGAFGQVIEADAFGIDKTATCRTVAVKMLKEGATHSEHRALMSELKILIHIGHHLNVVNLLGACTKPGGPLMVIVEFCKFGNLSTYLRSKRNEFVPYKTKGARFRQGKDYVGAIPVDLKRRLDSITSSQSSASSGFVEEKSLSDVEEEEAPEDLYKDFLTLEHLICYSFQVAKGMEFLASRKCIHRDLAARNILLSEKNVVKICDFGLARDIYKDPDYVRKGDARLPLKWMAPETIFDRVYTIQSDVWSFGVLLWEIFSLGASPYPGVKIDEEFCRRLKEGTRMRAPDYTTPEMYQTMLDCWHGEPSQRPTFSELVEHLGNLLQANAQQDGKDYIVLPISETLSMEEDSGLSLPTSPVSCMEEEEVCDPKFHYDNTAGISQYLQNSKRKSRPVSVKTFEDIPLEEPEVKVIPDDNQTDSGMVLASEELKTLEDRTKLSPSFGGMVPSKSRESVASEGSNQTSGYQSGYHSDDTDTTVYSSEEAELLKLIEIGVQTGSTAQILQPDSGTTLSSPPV
# Experimental: Example B-1: Human KDR (residues K790-V1356, 55 nM) was incubated with 8 mM MOPS pH 7.0, 0.2 mM EDTA, 0.33 mg/mL myelin basic protein, 10 mM magnesium acetate, and 10 μM [γ-33P-ATP]. The reaction was initiated by the addition of the Mg/ATP mix. After incubation for 40 minutes at room temperature, the reaction was stopped by the addition of phosphoric acid to a concentration of 0.5%. A reaction aliquot of 10 μL was then spotted onto a P30 filtermat and washed four times for 4 minutes in 0.425% phosphoric acid and once in methanol prior to drying and scintillation counting. Incorporated 33P was measured using the Wallac Microbeta scintillation counter (Perkin Elmer).Example B-2: Human KDR (residues 790-1356; CarnaBio, 0.1 ng/well) was also incubated with enzymatic buffer (Cisbio) supplemented with 5 mM MgCl2, 1 mM MnCl2, and 1 mM DTT. The mixture was added to the pre-plated compounds. The reaction was initiated upon addition of ATP at Km (4.0 μM). The reaction was incubated at room temperature for 40 min and stopped upon the addition of SA-XL665 and TK-antibody both diluted in EDTA-containing kinase detection buffer (Cisbio). The kinase activity was calculated as stated above and the IC50 values were reported.
# [3] = biological target: T1, Tyrosine-protein kinase Mer (Homo sapiens, UniProt Q12866); experiment: Human Mer Kinase Assay
# T1 sequence (Q12866 whole entry): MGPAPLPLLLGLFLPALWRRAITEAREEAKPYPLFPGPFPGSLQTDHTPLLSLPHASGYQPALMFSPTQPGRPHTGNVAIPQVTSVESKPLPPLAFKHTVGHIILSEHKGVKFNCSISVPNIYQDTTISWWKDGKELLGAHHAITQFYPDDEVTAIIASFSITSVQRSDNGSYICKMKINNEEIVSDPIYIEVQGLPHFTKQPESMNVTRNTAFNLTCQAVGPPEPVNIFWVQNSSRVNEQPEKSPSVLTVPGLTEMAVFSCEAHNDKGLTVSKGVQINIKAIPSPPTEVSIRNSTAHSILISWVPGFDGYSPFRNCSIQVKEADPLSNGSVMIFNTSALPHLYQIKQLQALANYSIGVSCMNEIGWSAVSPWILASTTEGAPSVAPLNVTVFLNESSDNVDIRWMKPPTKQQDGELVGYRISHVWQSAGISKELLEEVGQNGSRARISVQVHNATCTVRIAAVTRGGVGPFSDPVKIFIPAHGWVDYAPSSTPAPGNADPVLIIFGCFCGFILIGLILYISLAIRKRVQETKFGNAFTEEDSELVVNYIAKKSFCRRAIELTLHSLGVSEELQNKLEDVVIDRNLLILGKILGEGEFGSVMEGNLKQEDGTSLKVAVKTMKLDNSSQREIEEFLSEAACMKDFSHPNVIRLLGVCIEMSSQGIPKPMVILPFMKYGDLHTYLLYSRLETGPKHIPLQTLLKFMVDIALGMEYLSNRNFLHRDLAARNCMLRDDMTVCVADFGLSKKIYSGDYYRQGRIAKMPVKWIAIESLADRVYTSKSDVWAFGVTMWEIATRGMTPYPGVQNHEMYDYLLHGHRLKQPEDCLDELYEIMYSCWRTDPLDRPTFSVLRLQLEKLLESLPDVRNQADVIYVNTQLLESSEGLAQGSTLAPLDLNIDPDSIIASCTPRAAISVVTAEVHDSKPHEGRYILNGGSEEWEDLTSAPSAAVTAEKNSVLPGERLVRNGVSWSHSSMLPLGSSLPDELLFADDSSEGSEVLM
# Experimental: Example C-1: Human Mer (residues R557-E882 with H628Q and R794A, 0.7 nM) was incubated with 8 mM MOPS pH 7.0, 0.2 mM EDTA, 30 mM NaCl, 250 μM […] (SEQ ID NO:2), 10 mM magnesium acetate, and 10 μM [γ-33P-ATP]. The reaction was initiated by the addition of the Mg/ATP mix. After incubation for 40 minutes at room temperature, the reaction was stopped by the addition of phosphoric acid to a concentration of 0.5%. A reaction aliquot of 10 μL was then spotted onto a P30 filtermat and washed four times for 4 minutes in 0.425% phosphoric acid and once in methanol prior to drying and scintillation counting. Incorporated 33P was measured using the Wallac Microbeta scintillation counter (Perkin Elmer).Example C-2: Human MER (residues 528-999; CarnaBio, 1 ng/well) was also incubated with enzymatic buffer (Cisbio) supplemented with 5 mM MgCl2 and 1 mM DTT. The mixture was added to the pre-plated compounds. The reaction was initiated upon addition of ATP at Km (40 μM). The reaction was incubated at room temperature for 60 min and stopped upon the addition of SA-XL665 and TK-antibody both diluted in EDTA-containing kinase detection buffer (Cisbio). The kinase activity was calculated as stated above and the IC50 values were reported.
# Chain of Hepatocyte growth factor receptor (P08581 whole entry, the tested form may be a part): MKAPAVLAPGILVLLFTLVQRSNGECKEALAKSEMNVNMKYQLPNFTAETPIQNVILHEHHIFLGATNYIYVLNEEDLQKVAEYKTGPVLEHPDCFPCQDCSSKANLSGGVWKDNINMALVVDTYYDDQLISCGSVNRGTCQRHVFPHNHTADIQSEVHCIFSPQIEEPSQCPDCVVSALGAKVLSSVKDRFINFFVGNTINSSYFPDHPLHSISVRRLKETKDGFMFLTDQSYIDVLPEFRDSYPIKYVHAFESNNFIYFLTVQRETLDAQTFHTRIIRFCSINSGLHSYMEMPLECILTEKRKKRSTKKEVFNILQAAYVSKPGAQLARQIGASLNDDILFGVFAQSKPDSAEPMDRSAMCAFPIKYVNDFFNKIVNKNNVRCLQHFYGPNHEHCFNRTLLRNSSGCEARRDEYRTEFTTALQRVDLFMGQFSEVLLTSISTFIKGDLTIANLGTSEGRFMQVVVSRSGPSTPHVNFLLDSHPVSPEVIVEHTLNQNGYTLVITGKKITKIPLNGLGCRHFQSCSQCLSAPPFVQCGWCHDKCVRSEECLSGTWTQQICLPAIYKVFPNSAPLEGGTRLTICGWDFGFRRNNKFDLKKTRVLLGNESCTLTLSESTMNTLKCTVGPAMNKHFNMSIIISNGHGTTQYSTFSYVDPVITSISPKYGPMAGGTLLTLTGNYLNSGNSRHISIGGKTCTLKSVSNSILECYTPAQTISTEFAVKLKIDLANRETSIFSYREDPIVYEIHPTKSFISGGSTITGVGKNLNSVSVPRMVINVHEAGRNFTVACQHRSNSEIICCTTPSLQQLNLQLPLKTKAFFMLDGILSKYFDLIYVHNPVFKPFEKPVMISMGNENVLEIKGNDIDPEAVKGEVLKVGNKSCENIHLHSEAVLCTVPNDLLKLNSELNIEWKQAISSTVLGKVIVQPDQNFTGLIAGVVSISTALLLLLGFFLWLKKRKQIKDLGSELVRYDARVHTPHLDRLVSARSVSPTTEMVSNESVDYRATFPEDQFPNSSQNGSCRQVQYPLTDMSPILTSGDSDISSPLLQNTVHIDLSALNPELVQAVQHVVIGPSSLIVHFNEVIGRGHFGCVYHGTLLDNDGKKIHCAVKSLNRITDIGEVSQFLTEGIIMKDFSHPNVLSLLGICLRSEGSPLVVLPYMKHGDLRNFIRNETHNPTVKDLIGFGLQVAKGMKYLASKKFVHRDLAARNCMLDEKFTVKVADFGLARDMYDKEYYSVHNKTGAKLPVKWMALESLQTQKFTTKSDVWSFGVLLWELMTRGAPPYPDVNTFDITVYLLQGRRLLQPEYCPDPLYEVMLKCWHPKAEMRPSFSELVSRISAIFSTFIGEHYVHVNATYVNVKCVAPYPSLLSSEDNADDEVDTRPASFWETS
IC50 [1] [nM],IC50 [2] [nM],IC50 [3] [nM],Structure (SMILES)
< 100,< 100,< 100,"COc1cc2nccc(Oc3ccc(NC(=O)C4C(=O)C(c5ccc(F)cc5)=C(C)N=C4C)cc3F)c2nc1OC (stereo unspecified) [US12371428, Compound 154]"
< 100,< 100,< 100,"COCCOc1ccc2nccc(Oc3ccc(NC(=O)C4=C(C)N=C(C)C(c5ccc(F)cc5)C4O)cc3F)c2n1 (stereo unspecified) [US12371428, Compound 349]"
